# Counter-ions that a name gives are not always drawn.
# Tests used:
# [1] = test system: Balb/c mice; test: open-field test, Balb/c mice (passive type of emotional-stress reaction); format: in vivo; conditions: i.p., screening
# Summary of the method: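 Male mice, 20-22 g, dosed i.p. in water 30 min before a 3-min open-field test after 1 min in darkness; peripheral, central, rearing and total activity plus defecations recorded; Student t-test. Anxiolysis read as Balb/c activation, sedation as C57B1/6 inhibition.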
# [2] = test system: aconitine arrhythmia; test: animal or person; format: in vivo, rats; conditions: for LD50/ED50 (antiarrhythmic index): LD50 i.v. / ED50 aconitine arrhythmia; for ED50: Rattus norvegicus, iv, read-out: Aconitine arrhythmia ED50
# Experimental: Aconitine arrhythmia. The aconitine arrhythmia was induced in concious rats weighing 180-200 g by the injection in tail vein of the aconitine sulfate solution at dose range of […]. […] The tested compounds were administered i.v. 3 min prior aconitine injection. The ED50 value was calculated according to Litchfield's method.
# [3] = after i.v. injection
# [4] = test system: calcium chloride arrhythmia; test: calcium chloride arrhythmia in concious rats; format: in vivo; conditions: Rattus norvegicus, iv, concious rats, given 2 min prior calcium chloride 250-300 mg/kg i.v.; read-out: Calcium chloride arrhythmia ED50 (mean effective dose)
# Experimental: In these experiments the outbred concious rats 180-200 g of weight were injected with 10% solution of calcium chloride in tail vein at dose range of 250-300 mg/kg.
# [5] = test system: adrenaline arrhythmia; test: adrenaline arrhythmia in concious rabbits; conditions: given 2 min before arrhythmogenic dose of adrenaline
# Experimental: Adrenaline arrhythmia. The 0,1% solution of adrenaline hydrochloride was injected to the marginal ear's vein of rabbit weighing 2,5-3,0 kg at dose ranging 120-150 mcg/kg which induced cardiac rhythm disturbances of two types.
# The tested compound was injected in 3 ml of distilled water 30 min after determination of arrhythmogenic dose of adrenaline and the ECG was recorded in 2nd standard lead. 2 min after administration of tested compound the arrhythmogenic dose of adrenaline was injected.
# [6] = in vivo; conditions: iv
# [7] = test system: cats; test: hemodynamics and activity of intact heart in cats under anesthesia; format: in vivo; conditions: for effect on heart rate, in words: VIII 1,0, IX 0,5 and 1,0, XX 1,0 and 2,0 mg/kg, XXIII 1.0, verapamil 0.5 mg/kg
# Experimental: The effects of compounds on the hemodynamics and activity of intact heart were studied in cats under anesthesia. The experiments were carried out under conditions of open chest. The phase curve of aortic blood flow was the main index of cardiac activity. The compounds were administered i.v. in physiological solution. The t-Student' test was used to estimate the statistical significance.
# [8] = test system: ischemized myocardium of cats; test: ST-segment elevation during 5 min occlusions of coronary artery (acute coronary deficiency); format: in vivo; conditions: cats, bolus injection
# Experimental: These experiments were conducted in cats weighing 2,5-4,0 kg under anasthesia by i.v. injection of nembutal (40 mg/kg) in open chest conditions. Epicardium electrogram in 3-4 leads was registered in “Mingograph-81”. The value of mean elevation of ST-segment during 5 min occlusions of anterior left descending coronary artery with 15 min reperfusions between them was the main index of intensity of reversible ischemized damage of myocardium.
# The statistical calculation was carried out with non-parametric Wilcocson method for associated variants.
# [9] = test system: ischemized myocardium of cats; test: contractile and pump functions and ATP level of ischemized myocardium (20-40 min occlusion, reperfusion); format: in vivo
# Experimental: The effects of this compound on contractile and pump functions of ischemized myocardium were studied in cats weighing 3,0-4,5 kg under anesthesia with nembutal (40 mg/kg). […] The phase curve of blood flow in ascending part of the aortic arch was recorded with electromagnetic blood flowmeter MFV-1200 (“Nihon-Kohden”, Japan). Hemodynamics, heart activity values and the number of arrhythmia were calculated. In the experiments with 40 min ischemia immediately after 60 min the intact and ischemized zones of left ventricle were dissected and freezed in liquid nitrogen. ATP level was measured using hexokinase method in these zones. 4 series of experiments (2-control and 2-basic) were conducted in 12 cats in each. For statistical calculation the t-Student and Fisher's precision test were used.
# [10] = test system: ventricular disturbances of heart rhythm; test: arrhythmia in concious dogs according to Harris; format: in vivo; conditions: for % ectopic contractions, change vs basal level / Heart rate, change vs basal level: concious dogs, 2 mg/kg i.v.
# Experimental: The arrhythmia in concious dogs according to Harris. The experiments were conducted in mongrel dogs of either sex weighing 9-14 kg. Under anesthesia (40 mg/kg of nembutal i.v.) and artificial respiration the two-step occlusion of the left anterior descending coronary artery was performed. The constant ECG disturbances of the heart rhythm were recorded after 24 hours. […] T-Student' test was used for statistical calculation.
# [11] = 0.5 mg/kg i.v., 0.25 min after injection
# [12] = cats, 0.5 mg/kg i.v., after 2 min
# [13] = cats, 0.5 mg/kg i.v., after 5 min
# [14] = cats, 0.5 mg/kg i.v., after 10 min
# [15] = cats, 0.5 mg/kg i.v., after 20 min
# [16] = cats, 0.5 mg/kg i.v., after 30 min
# [17] = 1.0 mg/kg i.v., 0.25 min after injection
# [18] = cats, 1.0 mg/kg i.v., after 2 min
# [19] = cats, 1.0 mg/kg i.v., after 5 min
# [20] = cats, 1.0 mg/kg i.v., after 10 min
# [21] = cats, 1.0 mg/kg i.v., after 20 min
# [22] = cats, 1.0 mg/kg i.v., after 30 min
structure (smiles),measurement,setting,value
"Cc1cc2nc(SCCN3CCCC3)[nH]c2cc1C (as salt: hydrochloride) (hydrate or solvate) [XIII, 2-[2-(Pyrrolidino)ethylthio]-5,6-dimethylbenzimidazole]",melting point,,115 to 116 °C (dec.)
"CCOc1ccc2nc(SCCN3CCCC3)[nH]c2c1 (as salt: hydrochloride) [Compound X, 2-[2-(Pyrrolidino)ethylthio]-5-ethoxybenzimidazole]",melting point,,127 to 130 °C (dec.)
"C=CCSc1nc2cc(C)c(C)cc2[nH]1 (as salt: hydrochloride) [III, 2-Allylthio-5,6-dimethylbenzimidazole]",melting point,,119 to 120 °C
"C=CCSc1nc2ccc(OCC)cc2[nH]1 (as salt: hydrochloride) [IV, 2-Allylthio-5-ethoxybenzimidazole]",melting point,,252 to 254 °C (dec.)
"CCN(CC)CCSc1nc2ccccc2n1CCc1ccccc1 (as salt: hydrochloride) [XXI, 1-(β-Phenylethyl)-2-[2-(diethylamino)ethylthio]benzimidazole]",melting point,,129 to 130 °C
"CCSc1nc2cc(C)c(C)cc2[nH]1 [Compound I, 2-Ethylthio-5,6-dimethylbenzimidazole]","effect on the behavior (locomotor activity) of Balb/c mice in open-field test, in words",[1],neither activatory nor inhibitory effects
same,melting point,,123 to 124 °C
CCOC(=O)Nc1ccc2c(c1)N(C(=O)CCN1CCOCC1)c1ccccc1S2 [Etmosin],LD50/ED50 (antiarrhythmic index),[2],58.6
same,Aconitine arrhythmia ED50,"[2]; concious rats, i.v. 3 min prior aconitine",0.28 mg/kg
same,Acute toxicity LD50,[3],16.4 mg/kg
"CCCSc1nc2cc(C)c(C)cc2[nH]1 [II, 2-Propylthio-5,6-dimethylbenzimidazole]",melting point,,122 to 123 °C
"CCN(CC)CC(=O)Nc1c(C)cccc1C [Lidocaine, lidocaine]",ED50,[4],7.5 mg/kg
same,ED50,[2],7.8 mg/kg
same,Adrenaline arrhythmia. Range of active doses,[5],5.0 to 8.0 mg/kg
"CCN(CC)CCNC(=O)c1ccc(N)cc1 [Novocainamide, novocainamide, reference compound]",ED50,[4],50 mg/kg
same,LD50/ED50 (antiarrhythmic index),[2],2.7
same,ED50,[2],41 mg/kg
same,LD50,[6],110 mg/kg
"CC(C)NCC(O)COc1cccc2ccccc12 (centres unmarked) [Propranolol, propranolol, reference compound]",ED50,[4],0.8 mg/kg
same,Adrenaline arrhythmia. Range of active doses,[5],0.3 to 1.0 mg/kg
"COc1ccc(CCN(C)CCCC(C#N)(c2ccc(OC)c(OC)c2)C(C)C)cc1OC (centres unmarked) [Verapamil, verapamil, reference compound]","Heart rate, change from basal level",[7]; [11],−13.7 ± 1.7 %
same,"Mean blood flow accelaration, change from basal level",[7]; [11],−32.5 ± 5.7 %
same,"Mean blood pressure, change from basal level",[7]; [11],−40.4 ± 7.0 %
same,"effect on heart rate, in words",[7]; cats i.v.,induced the bradycardia
same,"Heart rate, change from basal level",[7]; [12],−11.8 ± 2.0 %
same,"Mean blood flow accelaration (aortic), change from basal level",[7]; [12],−15.5 ± 2.4 %
same,"Mean blood pressure, change from basal level",[7]; [12],−22.7 ± 8.1%
same,"Heart rate, change from basal level",[7]; [13],−12.3 ± 3.0 %
same,"Mean blood flow accelaration (aortic), change from basal level",[7]; [13],−8.1 ± 3.0 %
same,"Mean blood pressure, change from basal level",[7]; [13],−8.7 ± 6.3%
same,"Heart rate, change from basal level",[7]; [14],−8.1 ± 2.0 %
same,"Mean blood flow accelaration (aortic), change from basal level",[7]; [14],−9.9 ± 2.5 %
same,"Mean blood pressure, change from basal level",[7]; [14],−2.4 ± 2.6%
same,"Heart rate, change from basal level",[7]; [15],−5.4 ± 2.0 %
same,"Mean blood flow accelaration (aortic), change from basal level",[7]; [15],−8.7 ± 3.0%
same,"Mean blood pressure, change from basal level",[7]; [15],−8.5 ± 6.6%
same,"Heart rate, change from basal level",[7]; [16],−4.6 ± 3.4%
same,"Mean blood flow accelaration (aortic), change from basal level",[7]; [16],−7.0 ± 4.2%
same,"Mean blood pressure, change from basal level",[7]; [16],−11.6 ± 7.0%
same,ED50,[4],1.1 mg/kg
same,Adrenaline arrhythmia. Range of active doses,[5],0.3 to 1.0 mg/kg
"CCN(CC)CCSc1nc2cc(C)c(C)cc2[nH]1.Cl.Cl [XXIII, dihydroxychloride 2-[2-(diethylamino)ethylthio]-5,6-dimethylbenzimidazole, reference compound]","Cardiac volume, change from basal level",[7]; [17],+3.6 ± 3.5%
same,"Heart rate, change from basal level",[7]; [17],−14.6 ± 1.2 %
same,"Mean blood flow accelaration, change from basal level",[7]; [17],+2.1 ± 4.9%
same,"Mean blood pressure, change from basal level",[7]; [17],−13.9 ± 2.9 %
same,"effect on contractile function of heart, in words","[7]; cats i.v., same doses as bradycardia",inhibition of contractile function of heart
same,"effect on heart rate, in words",[7]; cats i.v.,expressed and long bradycardia
same,"Cardiac volume, change from basal level",[7]; [18],−3.6 ± 2.0%
same,"Heart rate, change from basal level",[7]; [18],−11.7 ± 1.3 %
same,"Mean blood flow accelaration (aortic), change from basal level",[7]; [18],−4.9 ± 4.7%
same,"Mean blood pressure, change from basal level",[7]; [18],−0.2 ± 4.0%
same,"Cardiac volume, change from basal level",[7]; [19],−0.6 ± 2.3%
same,"Heart rate, change from basal level",[7]; [19],−7.9 ± 1.6 %
same,"Mean blood flow accelaration (aortic), change from basal level",[7]; [19],−1.0 ± 5.0%
same,"Mean blood pressure, change from basal level",[7]; [19],+3.4 ± 2.5%
same,"Cardiac volume, change from basal level",[7]; [20],−0.7 ± 3.6%
same,"Heart rate, change from basal level",[7]; [20],−5.1 ± 1.2 %
same,"Mean blood flow accelaration (aortic), change from basal level",[7]; [20],+8.1 ± 3.0 %
same,"Mean blood pressure, change from basal level",[7]; [20],+3.8 ± 3.2%
same,"Cardiac volume, change from basal level",[7]; [21],−4.2 ± 2.4%
same,"Heart rate, change from basal level",[7]; [21],−3.8 ± 1.5 %
same,"Mean blood flow accelaration (aortic), change from basal level",[7]; [21],+4.3 ± 2.7%
same,"Mean blood pressure, change from basal level",[7]; [21],+2.8 ± 2.8%
same,"Cardiac volume, change from basal level",[7]; [22],−4.5 ± 3.5%
same,"Heart rate, change from basal level",[7]; [22],−4.1 ± 1.0 %
same,"Mean blood flow accelaration (aortic), change from basal level",[7]; [22],−2.4 ± 3.4%
same,"Mean blood pressure, change from basal level",[7]; [22],+2.9 ± 3.2%
same,"duration of effect on ST-segment elevation after bolus injection, in words",[8],very short
same,"effect on inhibition of contractile function of myocardium induced by ischemic damage, in words","[9]; 20 min occlusion, 30 min reperfusion, 1,0 mg/kg bolus +50 mcg/kg/min i.v. during 30 min",observable only during occlusion period and first 10 min of reperfusion
same,"effect on ATP level in ischemized myocardium, in words","[9]; 40 min occlusion, 60 min reperfusion, hexokinase method",did not change the ATP level
same,"% ectopic contractions, change vs basal level",[10]; after 1 min,−57.4 ± 17.6 %
same,"Heart rate, change vs basal level",[10]; after 1 min,−19.0 ± 2.5 beats/min
same,"% ectopic contractions, change vs basal level",[10]; after 3 min,−66.2 ± 18.1 %
same,"% ectopic contractions, change vs basal level",[10]; after 5 min,−54.6 ± 16.8 %
same,"Heart rate, change vs basal level",[10]; after 5 min,−30.4 ± 4.5 beats/min
same,"% ectopic contractions, change vs basal level",[10]; after 10 min,−22.6 ± 8.9 %
same,"% ectopic contractions, change vs basal level",[10]; after 15 min,−24.8 ± 11.1 %
same,"Heart rate, change vs basal level",[10]; after 15 min,−29.0 ± 5.5 beats/min
same,"% ectopic contractions, change vs basal level",[10]; after 30 min,−8.8 ± 4.7%
same,"Heart rate, change vs basal level",[10]; after 30 min,−14.0 ± 4.8 beats/min
same,"% ectopic contractions, change vs basal level",[10]; after 60 min,−5.2 ± 2.6%
same,"Heart rate, change vs basal level",[10]; after 60 min,−12.0 ± 5.5 beats/min
same,duration of antiarrhythmic effect,"[10]; concious dogs, 2,0 mg/kg i.v.",shorter

# Source: patent US6376666B1 (Nauchno-Issledovatelsky Institut Farmakologii Rossiiskoi …, priority 1994, dated 2002)
